Measured values reported in patent publication US20220401374A1, “COMPOSITIONS AND METHODS FOR CANCER TREATMENT BY ENHANCING ANTITUMOR IMMUNITY USING TANNIC ACID-BASED NANOCAPSULES” (Purdue Research Foundation, priority 2019, published 2022).

How the values were obtained:
BMDCs [1] = test: BMDC activation after coculture with pretreated B16F10 cells (CD40, CD86); assay type: cell-based, C57BL/6 mice; settings: B16F10 pretreated 24 h, 200 nM CFZ-equivalent
Experimental: Bone marrow cells were collected from healthy male C57BL/6 as reported previously^71. Mice at the age of 6-8 weeks were sacrificed using CO2 asphyxiation. Using a syringe, the cavities of femur bones were flushed with RPMI 1640 medium containing penicillin/streptomycin. The collected bone marrow was pipetted several times and passed through a 40 μm cell strainer to obtain single cell suspension. The cells were collected by centrifugation at 500 rcf for 8 min, treated with ACK buffer, rinsed, and suspended in IMDM medium supplemented with 10% FBS, penicillin/streptomycin, 20 ng/mL GM-CSF, and 10 mM β-mercaptoethanol at a density of 2×10^6 cells per 10 mL to differentiate into dendritic cells (DCs). Additional medium was supplemented three days later, and the floating and loosely adherent cells were collected by centrifugation on day 6. The DC phenotype was confirmed by CD11c staining. […] The stained cells were analyzed by flow cytometry (Accuri C6, BD Biosciences, San Jose, Calif., USA). Fluorescence-minus-one (FMO) controls were used for compensation and gating. The extent of phagocytosis was expressed as the percentage of DiI^+CD11c^+ cells per total CD11c^+ cells. The DC activation was assessed by CD11c^+CD40^+ or CD11c^+CD86^+ per total CD11c^+ cells.

B16F10 cells = test: Cytotoxicity by MTT assay in B16F10 cells; assay type: cell-based, murine; settings: 24 h total
Experimental: Bolus-pulse: Cells were incubated with CFZ-DMSO at different CFZ concentrations for 2.4 h then washed and incubated in drug-free medium for additional 21.6 h making the total incubation time of 24 h. Low-extended: Cells were incubated with at 1/10th CFZ concentrations for 24 h. Cell viability was measured by the MTT assay at the end of 24 h. % cell viability was calculated by normalizing to the viability of control cells treated with the equivalent amount of vehicle for the same period of time.
B16F10 (derived from murine melanoma; ATCC, Manassas, Va., USA) or HCC-1937 (derived from human triple negative breast cancer; ATCC, Manassas, Va., USA) were grown in RPMI 1640 or DMEM medium, respectively, supplemented with 10% FBS and penicillin (100 IU/mL) and streptomycin (100 μg/mL). Cells were seeded in a 96 well plate at a density of 4,000 cells per well. After 24 h incubation, the culture medium was replaced with fresh medium containing CFZ (as a stock solution in DMSO), CFZ-pTA or CFZ-pTA-alb. […] The stop/solubilizing solution was added to dissolve formazan crystals, and the absorbance was read at the wavelength of 562 nm by the SpectraMax M3 microplate reader.

BMDCs [2] = test: Phagocytosis of pretreated DiI-labeled B16F10 cells by BMDCs; assay type: cell-based, C57BL/6 mice
plasma protein = settings: cited from earlier work
[3] = test system: splenocytes from C57BL/6 mice; test: Cytotoxicity of CFZ on splenocytes, bolus-pulse vs low-extended; assay type: cell-based; settings: 24 h total
Experimental: To estimate whether the sustained supply of CFZ is beneficial to sparing immune cells in the tumor microenvironment, we tested the cytotoxic effect of CFZ on splenocytes in two treatment regimens (FIG. 3A): a pulse treatment of bolus dose (bolus-pulse) and an extended treatment of low dose (low-extended), where bolus-pulse indicates incubation of cells in different CFZ concentrations for 2.4 h followed by washout and incubation in drug-free medium for additional 21.6 h making the total incubation time of 24 h, and low-extended indicates incubating cells in 1/10th CFZ concentrations for 24 h. The bolus-pulse regimen represents unformulated CFZ that is immediately available to the tumor upon intratumoral injection but rapidly diffuses to the circulation, whereas the low-extended regimen mimics the sustained release of CFZ from CFZ-pTA-alb over a prolonged period of time. Splenocytes freshly harvested from C57BL/6 mice were used as a surrogate for immune cells, as the spleen is the largest secondary lymphoid organ containing 25% of total lymphocytes^34, where B cells and T cells constitute 45-50% and 30-35%, respectively^35.
The cytotoxicity of CFZ was also measured on splenocytes. […] Cell viability was measured as described above.

In the case of `CC(C)C[C@H](NC(=O)[C@H](CCc1ccccc1)NC(=O)CN1CCOCC1)C(=O)N[C@@H](Cc1ccccc1)C(=O)N[C@@H](CC(C)C)C(=O)[C@@]1(C)CO1` [CFZ, Carfilzomib], the “CD40 expression on CD11c+ BMDCs” value (BMDCs [1]) is reported as “increased the expression of the two activation markers”, the “CD86 expression on CD11c+ BMDCs” value (BMDCs [1]) is reported as “increased the expression of the two activation markers” and the “sensitivity to bolus-pulse vs low-extended regimen” value (B16F10 cells) is reported as “equally sensitive to the two regimens”. For the same molecule, the “BMDC uptake of DiI+ B16F10 cells vs untreated B16F10 cells” value (BMDCs [2]; 10 μM CFZ equivalent pretreatment 24 h, coculture 4 or 24 h) was “greater extents of DiI^+CD11c^+ cells per total CD11c^+ cells”, the “BMDC uptake of pretreated B16F10 cells at 4° C.” value (BMDCs [2]; 4° C.) was “diminished” and the “BMDC uptake of DiI+ cells/fragments by confocal microscopy” value (BMDCs [2]; Pearson's correlation coefficient of signal colocalization) was “increased”. For the same molecule, the plasma protein binding (plasma protein) was 97.6-98.2% and the “sensitivity to bolus-pulse vs low-extended regimen” value [3] was “less sensitive to the low-extended regimen than to the bolus-pulse regimen”.
